In patent US9518976B2, “Methods for identifying or assaying for agents that increase beta-cell proliferation, insulin secretion, insulin sensitivity, glucose tolerance and decrease fat mass” (The Trustees of Columbia University in The City of New York, priority 2006, dated 2016):
Ends that are not written are not given here.

Legend:
Assay type in all cases: in vivo, mouse
Wild type mice [1] = assay: Osteocalcin subcutaneous infusion in wt mice: insulin sensitivity after insulin injection; conditions: 0.3 or 3 ng/hour s.c. for 18 days, then single insulin injection, 0-120 minutes, vs PBS
Method: FIG. 12. […] Wt mice were infused subcutaneously with indicated doses of recombinant osteocalcin or PBS for 18 days before receiving a single injection of insulin. Blood glucose was measured thereafter at indicated times.
For glucose tolerance test (GTT), glucose (2 g/kg body weight (BW)) was injected intraperitoneally (IP) after an overnight fast and blood glucose was monitored using blood glucose strips and the Accu-Check glucometer (Roche) at indicated times. For glucose stimulated insulin secretion test (GSIS), glucose (3 g/kg BW) was injected IP after an overnight fast; sera were collected from tails and insulin measured as described (Mauvais-Jarvis et al., 2000). For insulin tolerance test (ITT), mice were fasted for six hours, injected IP with insulin (0.2 U/kg BW) and blood glucose levels were measured at indicated times as described (Mauvais-Jarvis et al., 2002). ITT data are presented as percentage of initial blood glucose concentration. […] Streptozotocin ([…] single injection, Sigma) was injected IP and blood glucose measured as described above every 2 days thereafter. […] Food intake was measured using metabolic cages as the daily change of food weight. Energy expenditure was measured using metabolic cages connected to a calorimeter (Columbus Instrument). Heat values (Kcal/Hr) were recorded over 2 days and reported to each mouse BW. […]

[2] = tested on: GTG-induced obesity in wt mice; assay: Osteocalcin subcutaneous infusion in gold thioglucose (GTG)-injected wt mice: body weight gain; conditions: GTG-injected wild type mice; for body weight gain: 1 ng/hr s.c. osmotic pump for 28 days, from 7 days on, vs PBS
Method: FIG. 14. […] Wt mice were injected with gold thioglucose (GTG) or vehicle to induce hyperphagia and obesity. Two weeks later they were implanted with subcutaneous osmotic pumps infusing […] of recombinant osteocalcin or PBS for 28 days before. Body weight gain was recorded thereafter at indicated days.
The effect of uncarboxylated osteocalcin on GTG-induced obesity was investigated (FIG. 14). Wild type mice were injected with gold thioglucose (GTG) to induce hyperphagia and obesity or vehicle. Two weeks later they were implanted with subcutaneous osmotic pumps infusing 1 ng/hr of recombinant uncarboxylated osteocalcin or PBS for 28 days. […] At 28 days, body weight was reduced by about 15% with uncarboxylated osteocalcin treatment.

Wild type mice [3] = assay: Osteocalcin subcutaneous infusion in wt mice: glycemia; conditions: 0.3, 1 and 3 ng/hour subcutaneous infusion for 28 days, vs PBS
Method: FIG. 10. […] Indicated doses of recombinant osteocalcin or PBS were infused subcutaneously for 28 days in wt mice. Blood glucose was measured at indicated days.
An in vivo experiment was conducted in which the effect of undercarboxylated osteocalcin on glycemia was monitored. Wild type mice were infused with 3 different amounts of mouse recombinant undercarboxylated osteocalcin or placebo (PBS) subcutaneously for 28 days (0.3, 1 and 3 ng/hour).

[4] = listed as recombinant osteocalcin

With “uncarboxylated osteocalcin: Recombinant mouse osteocalcin bacterially produced, cleaved from GST with thrombin; completely undercarboxylated at all three sites (YLGASVPSPDPLEPTREQCELNPACDELSDQYGLKTAYKRIYGITI; not fully specified; ends and bridges not checked; UniProt P86546 50-95, looked up)” the insulin sensitivity (Wild type mice [1]) was “increased”, the insulin sensitivity (Wild type mice [1]; [4]) was “increases insulin sensitivity” and the body weight gain [2] was “significantly reduced”. For the same substance, the body weight gain [2, 4] was “prevents GTG-induced obesity”, the body weight reduction ([2]; 1 ng/hr s.c., at 28 days) was “about 15%” and the “glycemia (blood glucose)” value (Wild type mice [3]; [4]) was “decreases glycemia”. For the same substance, the “glycemia (blood glucose)” value (Wild type mice [3]; listed as undercarboxylated osteocalcin) was “decreased glycemia”.
